From patent US20240390369A1, “METHODS FOR DETERMINING RESPONSIVENESS TO TYK2 INHIBITORS” (Bristol-Myers Squibb Company, priority 2021, published 2024)

Tested on: patients with psoriatic arthritis
Assay: Phase 2 trial in psoriatic arthritis: ACR20 response at week 16
Type: in vivo, human
Conditions: for ACR20 response rate over time: placebo, sixteen-week treatment period; for Odds Ratio, ACR20 response status / Odds Ratio for ACR20 response: All patients
Protocol: In a double-blind Phase 2 trial, 203 patients with psoriatic arthritis were randomized into three groups: deucravacitinib 6 mg once daily (N=70), deucravacitinib 12 mg once daily (N=67), or placebo (N=66). All subjects had active psoriatic arthritis according to the Classification Criteria for Psoriatic Arthritis (CASPAR); for active disease, these criteria required ≥3 tender joint count, ≥3 swollen joint count, and a C-reactive protein level above 3 mg/L. Other inclusion criteria included the following: presence of at least one plaque psoriasis lesion, and prior treatment failure with a non-biologic disease modifying anti-rheumatic drug, a non-steroidal anti-inflammatory drug, or a steroid. With respect to treatment history, approximately 70% of subjects had not received prior treatment with a biologic and were biologic naïve, while up to 30% of subjects had failed or had been intolerant to one TNF-inhibitor (TNF=Tumor necrosis factor, also known as TNFα). Randomization was stratified by prior TNF-inhibitor use (experienced/naïve) and body weight (<90 kg and ≥90 kg).
Clinical measures included the Psoriasis […] (PASI) score for skin psoriasis, American College of Rheumatology 20 (ACR20) response, Psoriatic Arthritis Disease Activity Score (PASDAS), Health Assessment Questionnaire-Disability Index (HAQ-DI), and Disease Activity Score 28 CRP (DAS28). To evaluate the predictive value of different protein measurements for the clinical response to deucravacitinib, baseline protein concentrations for responders and non-responders, as defined by ACR20 or PASI75 at week 16, were compared for each arm (placebo, 6 mg deucravacitinib once-daily, and 12 mg deucravacitinib once-daily).
Boxplots for baseline protein level by response were generated with a horizontal line indicating the median protein level at baseline. For each treatment arm, a two-sample t-test was performed to test whether mean baseline serum protein level was different in responders versus non-responders. A Wilcoxon rank sum test (Mann-Whitney U test) was also performed to evaluate the difference in median serum protein level between responders and non-responders. Further, barplots of ACR20 and PASI75 response rate at week 16 for each treatment arm were generated for all subjects (protein level high and protein level low subjects, dichotomized according to median baseline level). Line plots of ACR20 and PASI75 response rate over time for each treatment arm were generated for protein level high and protein level low groups. Logistic regression models were also fit to evaluate associations between baseline protein levels and clinical outcome.
For certain analyses described herein, patients were dichotomized by median values (e.g., of the proteins listed above or other measures) into “high” and “low” groups, such that the high group had values above the median and the low group had values less than or equal to the median.
In addition, logistic regression models were fit for response measures ACR20 and PASI75, to generate the odds ratio of each of the deucravacitinib treatment arms versus placebo, in BD2-high and BD2-low groups. The following logistic regression models were used: • For ACR20 response status: ACR20 (Y/N)=treatment arm+BD2 group+treatment arm*BD2 group+TNF-inhibitor use+baseline weight (continuous). • For PASI75 response status: PASI75 (Y/N)=treatment arm+BD2 group+treatment arm*BD2 group+TNF-inhibitor use+baseline weight (continuous). […] FIGS. 26-31 are forest plots summarizing the logistic regression results of these models (for BD2 and other biomarkers described herein); each “N,” for “Placebo” and “Deucrava,” represents the number of responders in that group. […]

[1] = 6 mg QD, Above median baseline CRP level
[2] = 6 mg QD, Below median baseline CRP level
[3] = 12 mg QD, Above median baseline CRP level
[4] = 12 mg QD, Below median baseline CRP level

SMILES: [2H]C([2H])([2H])NC(=O)c1nnc(NC(=O)C2CC2)cc1Nc1cccc(-c2ncn(C)n2)c1OC [deucravacitinib, 6-(cyclopropanecarboxamido)-4-((2-methoxy-3-(1-methyl-1H-1,2,4-triazol-3-yl)phenyl)amino)-N-(methyl-d3)pyridazine-3-carboxamide]
- Interaction Term for ACR20 response (ratio of odds ratios) (6 mg QD vs placebo: BD2 high versus BD2 low, week 16): 3.16
- Interaction Term: treatment arm*CRP group, ACR20 (6 mg QD vs placebo: CRP high versus CRP low): 0.786
- Interaction Term: treatment arm*CRP group, ACR20 (6 mg QD vs placebo: CRP-high versus CRP-low, adjusted for baseline DAS28): 0.788
- Interaction Term for ACR20 response (ratio of odds ratios) (6 mg QD vs placebo: IL-17A high versus IL-17A low, week 16): 3.10
- Interaction Term for ACR20 response (ratio of odds ratios) (6 mg QD vs placebo: IL-19 high versus IL-19 low, week 16): 3.33
- ACR20 response rate over time (6 mg QD, 12 mg QD, BD2-high and BD2-low groups (FIG. 10)): higher ACR20 response rates to deucravacitinib over time, compared to the response rate in the placebo arm, were observed in the BD2-high group but not in the BD2-low group
- ACR20 response rate over time (6 mg QD, 12 mg QD, CRP-high and CRP-low groups (FIG. 41)): higher response rates than the placebo arm
- ACR20 response rate over time (6 mg QD, 12 mg QD, IL-17A-high and IL-17A-low groups (FIG. 24)): higher ACR20 response rates over time were observed in the deucravacitinib treatment arms compared to placebo in IL-17A-high but not in IL-17A-low groups
- ACR20 response rate over time (6 mg QD, 12 mg QD, IL-19-high and IL-19-low groups (FIG. 17)): higher ACR20 response rates to deucravacitinib over time compared to placebo were observed in IL-19-high but not in IL-19-low groups
- Number of subjects (6 mg QD, ACR20 non-responder at week 16, above median baseline BD2 level): 20
- Number of subjects (6 mg QD, ACR20 non-responder at week 16, above median baseline IL-17A level): 14
- Number of subjects (6 mg QD, ACR20 non-responder at week 16, above median baseline IL-19 level): 17
- Number of subjects (6 mg QD, ACR20 non-responder at week 16, below median baseline BD2 level): 14
- Number of subjects (6 mg QD, ACR20 non-responder at week 16, below median baseline IL-17A level): 19
- Number of subjects (6 mg QD, ACR20 non-responder at week 16, below median baseline IL-19 level): 16
- Number of subjects (6 mg QD, ACR20 responder at week 16, above median baseline IL-17A level): 21
- Number of subjects (6 mg QD, ACR20 responder at week 16, above median baseline IL-19 level): 21
- Number of subjects (6 mg QD, ACR20 responder at week 16, below median baseline BD2 level): 7
- Number of subjects (6 mg QD, ACR20 responder at week 16, below median baseline IL-17A level): 16
- Number of subjects (6 mg QD, ACR20 responder at week 16, below median baseline IL-19 level): 16
- Number of subjects, ACR20 Non-responder at week 16 [1]: 17
- Number of subjects, ACR20 Responder at week 16 [1]: 19
- Number of subjects, ACR20 Non-responder at week 16 [2]: 16
- Number of subjects, ACR20 Responder at week 16 [2]: 18
- Interaction Term for ACR20 response (ratio of odds ratios) (12 mg QD vs placebo: BD2 high versus BD2 low, week 16): 3.40
- Interaction Term: treatment arm*CRP group, ACR20 (12 mg QD vs placebo: CRP high versus CRP low): 1.921
- Interaction Term: treatment arm*CRP group, ACR20 (12 mg QD vs placebo: CRP-high versus CRP-low, adjusted for baseline DAS28): 1.930
- Interaction Term for ACR20 response (ratio of odds ratios) (12 mg QD vs placebo: IL-17A high versus IL-17A low, week 16): 2.78
- Interaction Term for ACR20 response (ratio of odds ratios) (12 mg QD vs placebo: IL-19 high versus IL-19 low, week 16): 7.35
- Number of subjects (12 mg QD, ACR20 non-responder at week 16, above median baseline BD2 level): 10
- Number of subjects (12 mg QD, ACR20 non-responder at week 16, above median baseline IL-19 level): 7
- Number of subjects (12 mg QD, ACR20 non-responder at week 16, below median baseline BD2 level): 11
- Number of subjects (12 mg QD, ACR20 non-responder at week 16, below median baseline IL-17A level): 15
- Number of subjects (12 mg QD, ACR20 non-responder at week 16, below median baseline IL-19 level): 17
- Number of subjects (12 mg QD, ACR20 responder at week 16, above median baseline BD2 level): 20
- Number of subjects (12 mg QD, ACR20 responder at week 16, above median baseline IL-19 level): 21
- Number of subjects (12 mg QD, ACR20 responder at week 16, below median baseline BD2 level): 10
- Number of subjects (12 mg QD, ACR20 responder at week 16, below median baseline IL-19 level): 20
- Number of subjects, ACR20 Non-responder at week 16 [3]: 9
- Number of subjects, ACR20 Responder at week 16 [3]: 24
- Number of subjects, ACR20 Non-responder at week 16 [4]: 16
- Number of subjects, ACR20 Responder at week 16 [4]: 18
- Odds Ratio, ACR20 response status (6 mg QD vs placebo, not adjusted for baseline disease activity): 2.456
- Odds Ratio for ACR20 response (6 mg QD vs placebo, week 16): 2.46
- Odds Ratio, ACR20 response status (6 mg QD vs placebo, week 16, adjusted for baseline DAS28): 2.443
- Odds Ratio, ACR20 response status (12 mg QD vs placebo, not adjusted for baseline disease activity): 3.609
- Odds Ratio for ACR20 response (12 mg QD vs placebo, week 16): 3.61
- Odds Ratio, ACR20 response status (12 mg QD vs placebo, week 16, adjusted for baseline DAS28): 3.618
- Odds Ratio for ACR20 response (deucravacitinib treatment arms combined vs placebo, week 16): 2.961
- Odds Ratio, ACR20 response status (treatment arms combined vs placebo): 2.961
